Laboratory results as given in publication PMC10178127, “Immunomodulatory Effects of the Pea Defensin Psd1 in the Caco-2/Immune Cells Co-Culture upon Candida albicans Infection” (International Journal of Molecular Sciences, 2023).

Tested on: Caco-2/monocytes co-culture
Experiment: Multiplex xMAP cytokine production, Caco-2/monocytes co-culture
Type: cell-based, human
Conditions: 24 h; for EGF level / Eotaxin level / FGF-2 level / FLT-3L level / Fractalkine level / G-CSF level / GM-CSF level / GROa level / IFNa2 level / IFNg level / IL-1RA level / IL-1a level / IL-1b level / IL-2 level / IL-3 level / IL-4 level / IL-5 level / IL-6 level / IL-7 level / IL-8 level / IL-9 level / IL-10 level / IL-12 (p40) level / IL-12 (p70) level / IL-13 level / IL-15 level / IL-17A level / IL-17E/IL-25 level / IL-17F level / IL-18 level / IL-22 level / IL-27 level / IP-10 level / M-GSF level / MCP-1 level / MCP-3 level / MDC level / MIG level / MIP-1a level / MIP-1b level / PDGF-AA level / PDGF-AB/BB level / RANTES level / TGF-a level / TNFa level / TNFb level / VEGFa level / sCD40L level: 2 µM apical, basolateral medium
Text: The co-culture model consisted of immune cells (moDCs or monocytes) lying on the bottom of the culture well, and a Caco-2 polarized monolayer, mimicking intestinal epithelium, on a permeable insert. Immune cells were located on the serosal side of the epithelial barrier. In some inserts Candida albicans was loaded to the apical side of the epithelium, mimicking intestinal lumen colonization with this pathogenic fungus. This co-culture model allows yeast cells to contact only with the apical side of epithelial cells, but not with immune cells. Culture medium, containing cytokines, chemokines, and growth factors, produced by both epithelial and immune cells, was taken from basolateral chambers and analyzed by multiplex xMAP technology after incubation during 24 h when C. albicans cells switched to hyphal form.
For growing cells, mimicking epithelial barriers in vitro, Caco-2 cells were seeded onto 24-well polycarbonate Millicell cell culture inserts (0.4 μm, 0.6 cm^2 surface area) (Millipore, Burlington, MA, USA), precoated with 0.2% bovine gelatin (Sigma-Aldrich), at a density of 2.5 × 10^5 cells/cm^2. The cells were grown for 21 days in a complete DMEM/F12 (1:1) medium with re-feeding every 2–3 days with a fresh complete medium. The integrity of the Caco-2 cell monolayer was checked by measuring the transepithelial electrical resistance (TEER) using a Millicell-ERS Voltohmmeter (Millipore). Only cell monolayers with TEER > 400 Ωcm^2 (after subtracting TEER in blank inserts without Caco-2 cells) were used in transport across epithelial monolayer and cytokine production experiments.
Monocytes and moDCs were seeded into the wells of 48- and 24-well plates in the complete RPMI-1640 medium supplemented with 10% human AB serum (HABS, Capricorn Scientific) without antibiotics 24 h prior to the experiment, and kept in a humidified CO2-incubator (5% CO2, 37 °C). After 24 h, the medium in the wells of the 48-well plate was replaced by fresh complete RPMI-1640 medium with 10% HABS, supplemented with 2 µM of Psd1 for the sample wells or fresh medium alone for the control wells. Medium in the wells of the 24-well plate was replaced by fresh complete RPMI-1640 medium with 10% human serum without antibiotics. Then, Millicell inserts with Caco-2 monolayers with TEER > 400 Ωcm^2 were placed into the wells of the 24-well plate, containing monocytes or moDCs. Wells with Millicell inserts with Caco-2 monolayers without immune cells were used as control wells. Medium in apical chambers of Millicell inserts was replaced by fresh complete RPMI-1640 with 10% human serum medium containing Psd1 at the final concentration of 2 µM or Candida albicans at the concentration of 5 × 10^4 cells/mL or yeast cells together with the pea defensin at the same concentration. Fresh complete RPMI-1640 medium only with 10% human serum and without antibiotics was used in control wells. Plates were kept in CO2-incubator (5% CO2, 37 °C) for another 24 h. Culture supernatants from the wells of the 48-well plate and basolateral chambers of the 24-well plate were collected and stored at −70 °C degrees less than one month prior to the analytes assessment. […]

[1] = Caco-2/monocytes co-culture with C. albicans, 2 μM

Psd1: pea defensin from Pisum sativum (UNIPROT P81929), recombinant peptide overexpressed in Escherichia coli (KTCEHLADTYRGVCFTNASCDDHCKNKAHLISGTCHNWKCFCTQNC; UniProt P81929 1-46, looked up)
EGF level (Caco-2/Mono+Candida+Psd1): 7 pg/mL
Eotaxin level (Caco-2/Mono+Candida+Psd1): 4.44 pg/mL
FGF-2 level (Caco-2/Mono+Candida+Psd1): 47.02 pg/mL
FLT-3L level (Caco-2/Mono+Candida+Psd1): 0.83 pg/mL
Fractalkine level (Caco-2/Mono+Candida+Psd1): 27.26 pg/mL
G-CSF level (Caco-2/Mono+Candida+Psd1): 63.23 pg/mL
GM-CSF level (Caco-2/Mono+Candida+Psd1): 2.65 pg/mL
GROa level (Caco-2/Mono+Candida+Psd1): 1596 pg/mL
IFNa2 level (Caco-2/Mono+Candida+Psd1): 15.36 pg/mL
IFNg level (Caco-2/Mono+Candida+Psd1): <2.23↓ pg/ml
IL-1RA level (Caco-2/Mono+Candida+Psd1): 7.97 pg/mL
IL-1a level (Caco-2/Mono+Candida+Psd1): 29.04 pg/mL
IL-1b level (Caco-2/Mono+Candida+Psd1): 26.83 pg/mL
IL-2 level (Caco-2/Mono+Candida+Psd1): <0.95↓ pg/ml
IL-3 level (Caco-2/Mono+Candida+Psd1): <0.60↓ pg/ml
IL-4 level (Caco-2/Mono+Candida+Psd1): 3.07 pg/mL
IL-5 level (Caco-2/Mono+Candida+Psd1): <0.30↓ pg/ml
IL-6 level (Caco-2/Mono+Candida+Psd1): 631.32 pg/mL
IL-7 level (Caco-2/Mono+Candida+Psd1): <0.38↓ pg/ml
IL-8 level (Caco-2/Mono+Candida+Psd1): 8138 pg/mL
IL-9 level (Caco-2/Mono+Candida+Psd1): 6.07 pg/mL
IL-10 level (Caco-2/Mono+Candida+Psd1): 4.47 pg/mL
IL-12 (p40) level (Caco-2/Mono+Candida+Psd1): 25.99 pg/mL
IL-12 (p70) level (Caco-2/Mono+Candida+Psd1): <1.68↓ pg/ml
IL-13 level (Caco-2/Mono+Candida+Psd1): 25.38 pg/mL
IL-15 level (Caco-2/Mono+Candida+Psd1): 1.44 pg/mL
IL-17A level (Caco-2/Mono+Candida+Psd1): 2.9 pg/mL
IL-17E/IL-25 level (Caco-2/Mono+Candida+Psd1): <18.85↓ pg/ml
IL-17F level (Caco-2/Mono+Candida+Psd1): <19.03↓ pg/ml
IL-18 level (Caco-2/Mono+Candida+Psd1): 3.62 pg/mL
IL-22 level (Caco-2/Mono+Candida+Psd1): 24.13 pg/mL
IL-27 level (Caco-2/Mono+Candida+Psd1): 63.98 pg/mL
IP-10 level (Caco-2/Mono+Candida+Psd1): 35.99 pg/mL
M-GSF level (Caco-2/Mono+Candida+Psd1): 34.31 pg/mL
MCP-1 level (Caco-2/Mono+Candida+Psd1): 9510 pg/mL
MCP-3 level (Caco-2/Mono+Candida+Psd1): 273.49 pg/mL
MDC level (Caco-2/Mono+Candida+Psd1): 1060 pg/mL
MIG level (Caco-2/Mono+Candida+Psd1): 50.41 pg/mL
MIP-1a level (Caco-2/Mono+Candida+Psd1): 22.02 pg/mL
MIP-1b level (Caco-2/Mono+Candida+Psd1): 53.4 pg/mL
PDGF-AA level (Caco-2/Mono+Candida+Psd1): 341.69 pg/mL
PDGF-AB/BB level (Caco-2/Mono+Candida+Psd1): 805.91 pg/mL
RANTES level (Caco-2/Mono+Candida+Psd1): 78.92 pg/mL
TGF-a level (Caco-2/Mono+Candida+Psd1): 2.79 pg/mL
TNFa level (Caco-2/Mono+Candida+Psd1): 33.8 pg/mL
TNFb level (Caco-2/Mono+Candida+Psd1): 11.12 pg/mL
VEGFa level (Caco-2/Mono+Candida+Psd1): 523.74 pg/mL
sCD40L level (Caco-2/Mono+Candida+Psd1): 89.41 pg/mL
EGF level (Caco-2/Mono+Psd1): 9.18 pg/mL
Eotaxin level (Caco-2/Mono+Psd1): 4.17 pg/mL
FGF-2 level (Caco-2/Mono+Psd1): 43.83 pg/mL
FLT-3L level (Caco-2/Mono+Psd1): 1.29 pg/mL
Fractalkine level (Caco-2/Mono+Psd1): 29.68 pg/mL
G-CSF level (Caco-2/Mono+Psd1): 80.21 pg/mL
GM-CSF level (Caco-2/Mono+Psd1): 4.74 pg/mL
GROa level (Caco-2/Mono+Psd1): 1849 pg/mL
IFNa2 level (Caco-2/Mono+Psd1): 18.56 pg/mL
IFNg level (Caco-2/Mono+Psd1): <2.23↓ pg/ml
IL-1RA level (Caco-2/Mono+Psd1): 10.99 pg/mL
IL-1a level (Caco-2/Mono+Psd1): 137.08 pg/mL
IL-1b level (Caco-2/Mono+Psd1): 62.38 pg/mL
IL-2 level (Caco-2/Mono+Psd1): 3.01 pg/mL
IL-3 level (Caco-2/Mono+Psd1): <0.60↓ pg/ml
IL-4 level (Caco-2/Mono+Psd1): 2.67 pg/mL
IL-5 level (Caco-2/Mono+Psd1): <0.30↓ pg/ml
IL-6 level (Caco-2/Mono+Psd1): 830.31 pg/mL
IL-7 level (Caco-2/Mono+Psd1): <0.38↓ pg/ml
IL-8 level (Caco-2/Mono+Psd1): 7130 pg/mL
IL-9 level (Caco-2/Mono+Psd1): 6.07 pg/mL
IL-10 level (Caco-2/Mono+Psd1): 8.82 pg/mL
IL-12 (p40) level (Caco-2/Mono+Psd1): 40.75 pg/mL
IL-12 (p70) level (Caco-2/Mono+Psd1): 2.06 pg/mL
IL-13 level (Caco-2/Mono+Psd1): 23.46 pg/mL
IL-15 level (Caco-2/Mono+Psd1): 2.33 pg/mL
IL-17A level (Caco-2/Mono+Psd1): 3.99 pg/mL
IL-17E/IL-25 level (Caco-2/Mono+Psd1): <18.85↓ pg/ml
IL-17F level (Caco-2/Mono+Psd1): <19.03↓ pg/ml
IL-18 level (Caco-2/Mono+Psd1): 5.64 pg/mL
IL-22 level (Caco-2/Mono+Psd1): 18.63 pg/mL
IL-27 level (Caco-2/Mono+Psd1): 76.02 pg/mL
IP-10 level (Caco-2/Mono+Psd1): 70.11 pg/mL
M-GSF level (Caco-2/Mono+Psd1): 34.31 pg/mL
MCP-1 level (Caco-2/Mono+Psd1): 9656 pg/mL
MCP-3 level (Caco-2/Mono+Psd1): 354.38 pg/mL
MDC level (Caco-2/Mono+Psd1): 1230 pg/mL
MIG level (Caco-2/Mono+Psd1): 129.1 pg/mL
MIP-1a level (Caco-2/Mono+Psd1): 26.21 pg/mL
MIP-1b level (Caco-2/Mono+Psd1): 45.94 pg/mL
PDGF-AA level (Caco-2/Mono+Psd1): 357.15 pg/mL
PDGF-AB/BB level (Caco-2/Mono+Psd1): 985.45 pg/mL
RANTES level (Caco-2/Mono+Psd1): 123.08 pg/mL
TGF-a level (Caco-2/Mono+Psd1): 4.39 pg/mL
TNFa level (Caco-2/Mono+Psd1): 44.58 pg/mL
TNFb level (Caco-2/Mono+Psd1): 10.19 pg/mL
VEGFa level (Caco-2/Mono+Psd1): 384.49 pg/mL
sCD40L level (Caco-2/Mono+Psd1): 94.06 pg/mL
production of IL-4 [1]: increased the production
production of IL-8/CXCL8, IL-12, TNFα, G-CSF, and GM-CSF [1]: decreased inhibiting action of pathogenic fungus
production of IL-22 [1]: statistically significantly (p < 0.05) increased
production of MIG/CXCL9 [1]: decreased the production
production of IL-2, IL-10, MDC and IL-17 (Caco-2/monocytes co-culture, 2 μM apical, no Candida): statistically significant increase
